Results as given in US20120164670A1, “METHODS AND KITS FOR MEASURING ENZYME ACTIVITY” (President and Fellows of Harvard College, priority 2009, published 2012).
Read-outs that look alike come from different tables or passages of the source. Blank lines part the entries; values can stand above or below the molecule they belong to.

Tests used:
Type in all cases: biochemical
SIRT1 [1] = biological target: T1, SIRT1 (Homo sapiens, UniProt Q96EB6); test: PNC1-OPT fluorescent Nicotinamide Assay of SIRT1 deacetylation
T1 sequence (Q96EB6 1-747): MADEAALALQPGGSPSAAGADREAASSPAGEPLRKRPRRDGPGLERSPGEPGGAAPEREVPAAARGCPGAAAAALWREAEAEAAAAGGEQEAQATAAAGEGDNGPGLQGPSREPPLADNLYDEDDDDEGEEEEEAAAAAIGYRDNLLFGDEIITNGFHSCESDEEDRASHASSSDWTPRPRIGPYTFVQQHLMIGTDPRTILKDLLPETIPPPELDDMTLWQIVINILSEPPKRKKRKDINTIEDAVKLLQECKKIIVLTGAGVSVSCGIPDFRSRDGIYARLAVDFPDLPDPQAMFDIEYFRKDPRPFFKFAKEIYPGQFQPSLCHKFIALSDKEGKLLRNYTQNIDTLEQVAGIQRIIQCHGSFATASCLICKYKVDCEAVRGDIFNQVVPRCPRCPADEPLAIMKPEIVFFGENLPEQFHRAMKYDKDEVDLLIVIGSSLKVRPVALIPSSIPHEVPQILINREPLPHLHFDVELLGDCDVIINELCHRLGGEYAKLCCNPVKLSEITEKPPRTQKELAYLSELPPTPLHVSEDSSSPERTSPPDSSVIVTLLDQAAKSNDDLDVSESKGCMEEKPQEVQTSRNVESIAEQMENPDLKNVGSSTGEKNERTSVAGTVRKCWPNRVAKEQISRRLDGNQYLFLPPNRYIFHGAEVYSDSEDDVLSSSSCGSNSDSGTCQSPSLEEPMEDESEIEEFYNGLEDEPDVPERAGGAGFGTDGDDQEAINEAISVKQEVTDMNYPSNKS
Experimental: A SIRT1 enzymatic deacetylation reaction was carried out in the presence of an acetylated substrate and β-NAD. […] Subsequently, PNC1 was added to the mixture to convert all of the nicotinamide generated during the reaction into ammonia. Additionally, PNC1 may be added directly to the SIRT1 reaction (and the reactions may proceed simultaneously). […] In brief, the products of the PNC1 reaction were reacted with o-phthaladehyde in the presence of DTT. The reaction was allowed to proceed for 1 hour, and subsequently the amount of fluorescent adducts obtained were measured fluorometrically with excitation at ˜413 nm and emission at ˜476 nm. […] A blank reaction was also performed in the absence of NAD.
Prepare a master-mix for the total number of reactions you wish to perform. For each individual reaction, mix the following in the order presented (the total volume for each reaction is 100 uL):
Incubate at 37° C. for the appropriate amount of time (typically 1 hour) Reaction 2: Nicotinamide→Ammonia→Fluorescent adducts Note: When adding the OPT Developer it is advisable to work in a dark or dimly lit setting. Dim the lights prior to adding the developer to each reaction. a) Add 100 uL of the OPT Developer Mix to each reaction. b) Mix each sample by vortexing briefly for 5 s at the highest setting. c) Immediately cover all of the samples with Aluminum foil, and incubate the reactions on an orbital shaker for 1 hour at room temperature. Once covered, ambient lighting may be restored. 3) If necessary samples may be transferred to a 96-well plate for reading (do this under dim light). Read the fluorescence on a fluorometer with filters set to excitation (˜420 nm+/−20, and emission ˜450 nm (+/−20). A 0.1 s or 1 s read is generally recommended.
OPT Developer Reagent: A solution of 10 mM OPT and 10 mM DTT in 100% EtOH. Store at −20° C. in the dark until use. Cover with Aluminum foil in order to minimize exposure to light.

SIRT1 [2] = biological target: T1, SIRT1; test: PNC1-GDH (non-fluorometric) Nicotinamide Assay of SIRT1 deacetylation; settings: FIG. 4; Nicotinamide Assay depicted in FIG. 1 (PNC1-GDH); read-out: NAD Km value for SIRT1
Experimental: A SIRT1 enzymatic deacetylation reaction was carried out in the presence of an acetylated substrate and β-NAD. […] Subsequently, a-Ketoglutarate and NADPH were added to the reaction mix. The absorbance was read at 340 nm using an appropriate spectrophotometer (Ro). PNC1 and GDH were then added in excess to induce the coupled conversion of NADPH to NADP (PNC1 first converts NAM to NH3, and subsequently GDH uses the ammonia to oxidize NADPH to NADP). A second reading at 340 nm was then obtained (R1). The difference in absorbance readings, R1-Ro is proportional to the amount of NAM produced in the initial deacetylation reaction, thereby allowing for the measurement of activity. A blank reaction was carried out in the absence of NAD (or absence of Enzyme), as above, and subtracted from each sample in order to normalize the data.
Ex. Substrate Concentration (BIOMOL)=20 uM; NAD Concentration=1 mM
1) Mix the following (final volume 100 uL): • a) 10 uL 10×BIOMOL Buffer (250 mM Tris-Cl [pH=8], 1.37 M NaCl, 27 mM KCl, 10 mM MgCl2) • b) 0.4 uL *H4K16-Lys BIOMOL peptide (from a 5 mM stock for a final concentration of 20 uM) • c) 1 uL of 100 mM B-NAD (for a final concentration of 1 mM) • d) 2 uL SIRT1 enzyme (at 1.2 ug/ul, total ˜2.5 ug) • e) […] ddH20 2) Mix the reaction by pipetting. […] Place the reaction on ice until ready to proceed with reaction 2 (Centrifuge Briefly). […]

[3] = biological target: T2, full-length human SIRT1 enzyme (Homo sapiens, UniProt Q96EB6); test: Sirtuin assay kit (PNC1-OPT) with hSIRT1 enzyme
T2 construct: 1.1 ug/uL full-length human SIRT1 enzyme
T2 sequence (Q96EB6 1-747): T1 sequence (Q96EB6 1-747)
Experimental: Kit contents are generally stored at −20° C. Modifications or variations in volumes or amounts of components described below are compatible with kits and assays described herein. • 1) Assay Buffer: 2 tubes with 1 mL each of 10× Assay Buffer. Dilute to 1× with ddH20 prior to use. • 2) Non-tagged Peptide Substrate: 1 tube with 140 uL of 5 mM H3K9ac substrate (TARK(ac)STG)) (SEQ ID NO:23). This is a sample substrate only; any substrate may be used in this assay. • 3) β-NAD: a) 1 tube with 450 uL of 10 mM B-NAD, and b) 1 tube with 50 uL of 100 mM B-NAD. In some instances, it is preferable to keep β-NAD in concentrated aliquot form, and dilute it prior to use. • 4) hSIRT1 Enzyme: 1 tube with 400 uL of 1.1 ug/uL full-length human SIRT1 enzyme. • 5) yPNC1 Enzyme: 1 tube with 200 uL of 2 ug/uL yeast PNC1 enzyme • 6) Developing Reagent: 2 vials with 10 mL each 1× Developer (10 mM OPT/10 mM DTT in 100% EtOH). Minimize exposure to light as outlined in the procedure. […]
In some instances, when adding the OPT Developer it is advisable to work in a dark or dimly lit setting. […] Once covered, ambient lighting may be restored. • d) Read the samples. Samples may be transferred to a 96-well plate for reading (do this under dim light). Read the fluorescence on a fluorometer with filters set to excitation ˜420 nm, and emission ˜460 nm. […]

Molecule: Adenosine diphosphate ribose [ADPr, reference compound]
- mechanism of SIRT1 inhibition (SIRT1 [1]; FIG. 19/20, Vmax and Vmax/K vs [ADPr] for β-NAD and H3K9 peptide): competitive inhibitor of β-NAD

- effect of concentration on SIRT1 activity (dose titration) (SIRT1 [1]; FIG. 21B, H3K9-L peptide substrate): inversely correlates with SIRT1 activity
Molecule: DBC1: endogenous SIRT1 protein inhibitor

- Km (SIRT1 [1]; FIG. 8D, Nicotinamide Assay depicted in FIG. 6 (PNC1-OPT), Fleur de Lys peptide as substrate, read-out: NAD Km value for SIRT1): ~200 µM
- Km (SIRT1 [2]): 80 to 100 µM
- Km ([3]; kit protocol, Experiment 2 mastermix, read-out: Km of β-NAD (final concentration = Km)): 150 µM
- Km ([3]; stated in kit protocol (blank control note), read-out: Km for NAD): ~160 µM
Molecule: NC(=O)C1=CN([C@@H]2O[C@H](COP(=O)(O)OP(=O)(O)OC[C@H]3O[C@@H](n4cnc5c(N)ncnc54)[C@H](O)[C@@H]3O)[C@@H](O)[C@H]2O)C=CC1 [NAD, β-nicotinamide adenine dinucleotide]

- effect on SIRT1 deacetylase activity on the Fleur de Lys substrate (SIRT1 [1]; FIG. 10C, 100 uM, 75 uM β-NAD and 25 uM Fleur de Lys substrate): activation of SIRT1 deacetylase activity
Molecule: Oc1ccc(C=Cc2cc(O)cc(O)c2)cc1 [Resveratrol, reference compound]
